This assay deals with T1, PARP1 (Homo sapiens, UniProt P09874).
T1 construct: HeLa cells (wide-type with PARP1 gene) were purchased from ATCC; host or cells: HeLa (wild type)
Kind of assay: In-Cell Western measurement of PARylation in PARP1 WT and knockout cells. The assay is classed as cell-based. The settings on record: HeLa cells (wide-type with PARP1 gene); hydrogen peroxide-induced PARylation; compounds 30 min, then 10 mM hydrogen peroxide 15 min; read-out: HeLa_WT_IC50. The source says:
The purpose of this cell-based assay is to measure the potency and selectivity of synthesized PARP inhibitors in suppressing hydrogen peroxide-induced PARylation in cells with and without PARP1 expression. Several cell lines were used in this assay. The human PARP1 knockout HEK-293T cell line (#ab266598) was purchased from Abcam, and its corresponding wide-type control is the human wild-type HEK-293T cell line (#ab255449). The HAP1 isogenic cell lines with and without the PARP1 gene (#HZGHC003943c006) were purchased from Horizon Discovery. HeLa cells (wide-type with PARP1 gene) were purchased from ATCC. Cells were cultured using complete medium containing 10% fetal bovine serum. One day before the assay, cells were seeded in 96-well plates at the density of 20,000 cells per well in 100 uL complete medium. Compounds were dissolved using DMSO and diluted to the working concentrations using complete medium. Cells were pre-treated with compounds for 30 min and then stimulated with 10 mM hydrogen peroxide for 15 min. After stimulation, cells were immediately fixed using ice-cold methanol for 20 min. After fixation, cells were washed using 1×PBST buffer for 3 times, 5 min each time, to eliminate residual methanol. Cells were blocked for 2 h at room temperature in blocking buffer (LI-COR Biosciences, #927-70001). Primary antibody was diluted in diluent buffer (LI-COR Biosciences, #927-75001, 1:200) at 50 uL per well. Cells were incubated with the primary antibody at 4° C. for 18 h. The wells were then washed using 1×PBST for 3 times, 5 min each time. IRDye® 680RD Goat anti-Mouse IgG (H+L) secondary antibody was diluted at 1/2000 using the diluent buffer and added at 100 μL per well. Secondary antibody incubation was for 1 h at room temperature. Cells were then washed using 1×PBST for 3 times, 5 min each time. The signal was detected and analyzed using LI-COR Odyssey DLx Imaging system. Data were collected and further processed using GraphPad Prism for IC50 estimation.

T1 sequence (P09874 whole entry): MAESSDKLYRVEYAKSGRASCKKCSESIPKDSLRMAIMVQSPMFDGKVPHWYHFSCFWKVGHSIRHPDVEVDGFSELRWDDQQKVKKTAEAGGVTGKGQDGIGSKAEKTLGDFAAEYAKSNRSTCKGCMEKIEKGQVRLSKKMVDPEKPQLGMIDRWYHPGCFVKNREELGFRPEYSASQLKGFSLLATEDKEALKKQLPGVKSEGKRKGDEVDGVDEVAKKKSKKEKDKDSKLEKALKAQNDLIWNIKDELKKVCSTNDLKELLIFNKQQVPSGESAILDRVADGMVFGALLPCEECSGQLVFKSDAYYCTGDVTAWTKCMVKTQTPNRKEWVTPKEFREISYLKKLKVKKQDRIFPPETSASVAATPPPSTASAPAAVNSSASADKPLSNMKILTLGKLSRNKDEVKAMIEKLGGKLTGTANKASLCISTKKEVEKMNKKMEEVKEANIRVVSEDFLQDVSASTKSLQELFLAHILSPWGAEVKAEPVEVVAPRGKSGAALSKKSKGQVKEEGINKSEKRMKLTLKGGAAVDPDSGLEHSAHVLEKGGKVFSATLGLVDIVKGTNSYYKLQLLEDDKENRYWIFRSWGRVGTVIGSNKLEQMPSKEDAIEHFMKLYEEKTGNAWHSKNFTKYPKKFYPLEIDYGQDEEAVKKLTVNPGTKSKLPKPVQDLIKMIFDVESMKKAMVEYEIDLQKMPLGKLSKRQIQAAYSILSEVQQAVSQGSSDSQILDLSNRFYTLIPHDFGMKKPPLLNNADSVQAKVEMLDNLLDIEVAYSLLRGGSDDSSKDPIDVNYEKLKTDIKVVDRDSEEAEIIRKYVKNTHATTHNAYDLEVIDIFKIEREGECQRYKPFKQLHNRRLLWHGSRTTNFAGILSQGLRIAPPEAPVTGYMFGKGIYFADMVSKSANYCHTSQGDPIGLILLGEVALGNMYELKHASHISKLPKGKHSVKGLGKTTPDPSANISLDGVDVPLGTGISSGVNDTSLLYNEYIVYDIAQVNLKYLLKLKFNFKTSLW

As to `CCN1Cc2ncc(CN3CCN(c4ccc(C(=O)NC)nc4)CC3)cc2NC1=O` [Compound I-11, 5-(4-((3-Ethyl-2-oxo-1,2,3,4-tetrahydropyrido[3,2-d]pyrimidin-7-yl)methyl)piperazin-1-yl)-N-methylpicolinamide], the IC50 was in the range of 0.01 to 0.1 µM. The value for `CCn1c(=O)[nH]c2cc(CN3CCN(c4ccc(C(=O)NC)nc4)CC3)ccc2c1=O` [Compound I-1, 5-(4-((3-Ethyl-2,4-dioxo-1,2,3,4-tetrahydroquinazolin-7-yl)methyl)piperazin-1-yl)-N-methylpicolinamide] was at most 0.01 µM. The result for `CCN1C(=O)Nc2c(F)c(CN3CCN(c4ccc(C(=O)NC5CCC5)nc4C)CC3)cc3ncnc1c23` [Compound I-96, N-cyclobutyl-5-(4-((3-ethyl-9-fluoro-2-oxo-2,3-dihydro-1H-pyrimido[4,5,6-de]quinazolin-8-yl)methyl)piperazin-1-yl)-6-methylpicolinamide] reads at most 0.01 µM; that for `CCn1c(=O)[nH]c2cc(CN3CCN(c4ccc(C(=O)NC)nc4C)CC3)cc(C(F)F)c2c1=O` [Compound I-37, 5-(4-((5-(Difluoromethyl)-3-ethyl-2,4-dioxo-1,2,3,4-tetrahydroquinazolin-7-yl)methyl)piperazin-1-yl)-N,6-dimethylpicolinamide], at most 0.01 µM. The value for `CCn1c(=O)[nH]c2cc(CN3CCN(c4ccc(C(=O)NC)nc4F)CC3)ccc2c1=O` [Compound I-29, 5-(4-((3-Ethyl-2,4-dioxo-1,2,3,4-tetrahydroquinazolin-7-yl)methyl)piperazin-1-yl)-6-fluoro-N-methylpicolinamide] was at most 0.01 µM; that for `CNC(=O)c1ccc(N2CCN(Cc3cc(OC)c4c(=O)n(C)c(=O)[nH]c4c3F)CC2)c(C)n1` [Compound I-38, 5-(4-((8-Fluoro-5-methoxy-3-methyl-2,4-dioxo-1,2,3,4-tetrahydroquinazolin-7-yl)methyl)piperazin-1-yl)-N,6-dimethylpicolinamide] was at most 0.01 µM. Regarding `CNC(=O)c1ccc(N2CCN(Cc3ccc4c(c3)[nH]c(=O)c3ccn(C)c34)CC2)cn1` [Compound I-8, N-methyl-5-(4-((1-methyl-4-oxo-4,5-dihydro-1H-pyrrolo[3,2-c]quinolin-7-yl)methyl)piperazin-1-yl)picolinamide], the IC50 was at most 0.01 µM. Regarding `CCN1C(=O)Nc2cc(CN3CCN(c4ccc(C(=O)NC)nc4C)CC3)cc3cnnc1c23` [Compound I-45, 5-[4-[(12-Ethyl-11-oxo-2,3,10,12-tetrazatricyclo[7.3.1.05,13]trideca-1,3,5,7,9 (13)-pentaen-7-yl)methyl]piperazin-1-yl]-N,6-dimethyl-pyridine-2-carboxamide], the IC50 is at most 0.01 µM. The value for `CCN1C(=O)Nc2c(F)c(CN3CCN(c4ccc(C(=O)N[C@H]5CC[C@H](C#N)CC5)nc4C)CC3)cc3ncnc1c23` [Compound I-75, N-((1r,4r)-4-cyanocyclohexyl)-5-(4-((3-ethyl-9-fluoro-2-oxo-2,3-dihydro-1H-pyrimido[4,5,6-de]quinazolin-8-yl)methyl)piperazin-1-yl)-6-methylpicolinamide] was 0.01 to 0.1 µM; that for `CCN1C(=O)Nc2c(F)c(CN3CCN(c4ccc(C(=O)NC5CC5)nc4C)CC3)cc3ncnc1c23` [Compound I-55, N-cyclopropyl-5-(4-((3-ethyl-9-fluoro-2-oxo-2,3-dihydro-1H-pyrimido[4,5,6-de]quinazolin-8-yl)methyl)piperazin-1-yl)-6-methylpicolinamide] was at most 0.01 µM. The result for `CCc1c2c3c(cc(CN4CCN(c5ccc(C(=O)NC)nc5)CC4)cc3[nH]c1=O)OCC2` [Compound I-14, 5-(4-((4-Ethyl-5-oxo-2,3,5,6-tetrahydropyrano[4,3,2-de]quinolin-8-yl)methyl)piperazin-1-yl)-N-methylpicolinamide] reads at most 0.01 µM; that for `CNC(=O)c1ccc(N2CCN(Cc3ccc4c(c3)[nH]c(=O)c3c4ccn3C)CC2)cn1` [Compound I-7, N-methyl-5-(4-((3-methyl-4-oxo-4,5-dihydro-3H-pyrrolo[2,3-c]quinolin-7-yl)methyl)piperazin-1-yl)picolinamide], at most 0.01 µM.

Turning to `CCNC(=O)c1ccc(N2CCN(Cc3cc(Cl)c4c(=O)n(C)c(=O)[nH]c4c3)CC2)c(C)n1` [Compound I-43, 5-(4-((5-Chloro-3-methyl-2,4-dioxo-1,2,3,4-tetrahydroquinazolin-7-yl)methyl)piperazin-1-yl)-N-ethyl-6-methylpicolinamide], the IC50 is at most 0.01 µM. With `CCN1C(=O)Nc2c(F)c(CN3CCN(c4ccc(C(=O)NC5CC5)cc4F)CC3)cc3ncnc1c23` [Compound I-86, N-cyclopropyl-4-(4-((3-ethyl-9-fluoro-2-oxo-2,3-dihydro-1H-pyrimido[4,5,6-de]quinazolin-8-yl)methyl)piperazin-1-yl)-3-fluorobenzamide], the IC50 was 0.01 to 0.1 µM.

For `CCN1C(=O)Nc2c(F)c(CN3CCN(c4ccc(C(=O)NC5(CC#N)CC5)nc4C)CC3)cc3ncnc1c23` [Compound I-79, N-(1-(cyanomethyl)cyclopropyl)-5-(4-((3-ethyl-9-fluoro-2-oxo-2,3-dihydro-1H-pyrimido[4,5,6-de]quinazolin-8-yl)methyl)piperazin-1-yl)-6-methylpicolinamide], the IC50 is at most 0.01 µM. The value for `CCn1c(=O)[nH]c2c(F)c(CN3CCN(c4ccc(C(=O)NC)nc4C)CC3)ccc2c1=O` [Compound I-21, 5-(4-((3-ethyl-8-fluoro-2,4-dioxo-1,2,3,4-tetrahydroquinazolin-7-yl)methyl)piperazin-1-yl)-N,6-dimethylpicolinamide] was at most 0.01 µM; that for `CNC(=O)c1ccc(N2CCN(Cc3ccc4c(=O)n(CC(F)F)c(=O)[nH]c4c3)CC2)cn1` [Compound I-12, 5-(4-((3-(2,2-Difluoroethyl)-2,4-dioxo-1,2,3,4-tetrahydroquinazolin-7-yl)methyl)piperazin-1-yl)-N-methylpicolinamide] was at most 0.01 µM. Consider `CCN1C(=O)Nc2c(F)c(CN3CCN(c4ccc(C(=O)N[C@H]5C[C@@H](C#N)C5)nc4C)CC3)cc3ncnc1c23` [Compound I-65, N-((1s,3s)-3-cyanocyclobutyl)-5-(4-((3-ethyl-9-fluoro-2-oxo-2,3-dihydro-1H-pyrimido[4,5,6-de]quinazolin-8-yl)methyl)piperazin-1-yl)-6-methylpicolinamide], for which the IC50 was at most 0.01 µM. The value for `CNC(=O)c1ccc(N2CCN(Cc3ncc4c5c(c(=O)[nH]c4c3F)CCC5)CC2)c(C(F)(F)F)n1` [Compound I-28, 5-(4-((4-Fluoro-6-oxo-6,7,8,9-tetrahydro-5H-cyclopenta[c][1,6]naphthyridin-3-yl)methyl)piperazin-1-yl)-N-methyl-6-(trifluoromethyl)picolinamide] was at most 0.01 µM; that for `CCn1c(=O)[nH]c2cc(CN3CCN(c4ccc(C(=O)NC)nc4C)CC3)ccc2c1=O` [Compound I-16, 5-(4-((3-ethyl-2,4-dioxo-1,2,3,4-tetrahydroquinazolin-7-yl)methyl)piperazin-1-yl)-N,6-dimethylpicolinamide] was at most 0.01 µM; that for `CCN1C(=O)Nc2c(F)c(CN3CCN(c4ccc(C(=O)NC5CN(C)C5)nc4C)CC3)cc3ncnc1c23` [Compound I-71, 5-(4-((3-ethyl-9-fluoro-2-oxo-2,3-dihydro-1H-pyrimido[4,5,6-de]quinazolin-8-yl)methyl)piperazin-1-yl)-6-methyl-N-(1-methylazetidin-3-yl)picolinamide] was at most 0.01 µM. The value for `CCn1c(=O)[nH]c2c(F)c(CN3CCN(c4ccc(C(=O)NC)nc4C)CC3)cc(Cl)c2c1=O` [Compound I-39, 5-(4-((5-chloro-3-ethyl-8-fluoro-2,4-dioxo-1,2,3,4-tetrahydroquinazolin-7-yl)methyl)piperazin-1-yl)-N,6-dimethylpicolinamide] was at most 0.01 µM; that for `CCN1C(=O)Nc2c(F)c(CN3CCN(c4ccc(C(=O)N[C@H]5CCN(C)C5)nc4C)CC3)cc3ncnc1c23` [Compound I-78, (S)-5-(4-((3-ethyl-9-fluoro-2-oxo-2,3-dihydro-1H-pyrimido[4,5,6-de]quinazolin-8-yl)methyl)piperazin-1-yl)-6-methyl-N-(1-methylpyrrolidin-3-yl)picolinamide] was at most 0.01 µM.

On to `CCN1C(=O)Nc2c(F)c(CN3CCN(c4ccc(C(=O)NC)nc4C)CC3)cc3c(C)nnc1c23` [Compound I-54, 5-(4-((9-Ethyl-6-fluoro-3-methyl-8-oxo-8,9-dihydro-7H-pyridazino[3,4,5-de]quinazolin-5-yl)methyl)piperazin-1-yl)-N,6-dimethylpicolinamide], for which the IC50 was at most 0.01 µM. The result for `CCN1C(=O)Nc2c(F)c(CN3CCN(c4ccc(C(=O)NC5(CC#N)CC5)cc4F)CC3)cc3ncnc1c23` [Compound I-94, N-(1-(cyanomethyl)cyclopropyl)-4-(4-((3-ethyl-9-fluoro-2-oxo-2,3-dihydro-1H-pyrimido[4,5,6-de]quinazolin-8-yl)methyl)piperazin-1-yl)-3-fluorobenzamide] reads at most 0.01 µM.

For the origin of these results see patent US20250163022A1, “PARP1 INHIBITORS” (Synnovation Therapeutics, Inc., priority 2021, published 2025).
